In patent US9321768B2, “Indoles as respiratory syncytial virus antiviral agents” (JANSSEN SCIENCES IRELAND UC, priority 2010, dated 2016) one finds CC50 and EC50 data, which are given here for nine molecules.

Where two headings read alike, the source gives them in different places.

Data set [1] in a line: Cytotoxicity in HeLa cells, ATP content (ATPlite kit). The data set is classed as cell-based. To be noted: human. On the procedure: (§1) Black 96-well clear-bottom microtiter plates (Corning, Amsterdam, The Netherlands) were filled in duplicate using a customized robot system with serial 4-fold dilutions of compound in a final volume of 50 μl culture medium [RPMI medium without phenol red, 10% FBS, 0.04% gentamycin (50 mg/ml) and 0.5% DMSO]. Then, 100 μl of a HeLa cell suspension (5×10^4 cells/ml) in culture medium was added to each well followed by the addition of 50 μl rgRSV224 (MOI=0.02) virus in culture medium using a multidrop dispenser (Thermo Scientific, Erembodegem, Belgium). rgRSV224 virus is an engineered virus that includes an additional GFP gene (Hallak et al, 2000) and was in-licensed from the NIH (Bethesda, Md., USA). Medium, virus- and mockinfected controls were included in each test. Cells were incubated at 37° C. in a 5% CO2 atmosphere. Three days post-virus exposure, viral replication was quantified by measuring GFP expression in the cells by a MSM laser microscope (Tibotec, Beerse, Belgium). The EC50 was defined as the 50% inhibitory concentration for GFP expression. In parallel, compounds were incubated for three days in a set of white 96-well microtitier plates (Corning) and the cytotoxicity of compounds in HeLa cells was determined by measuring the ATP content of the cells using the ATPlite kit (PerkinElmer, Zaventem, Belgium) according to the manufacturer's instructions. The CC50 was defined as the 50% concentration for cytotoxicity.
On the technique in general: Cellular ATP, detected with luciferase, serves as a proxy for viable cell number.

A further data set concerns rgRSV224 virus. Put plainly: microbe, parasite or virus in culture. The data set is classed as cell-based, respiratory syncytial virus (RSV). To be noted: human respiratory syncytial virus, HeLa, 72 h, read-out: WT activity EC50. On the procedure:
as §1

Where [2] appears, read: HeLa cells, three days incubation, ATP content, read-out: Toxicity CC50.

A word on the CC50: it is the concentration at which the toxic effect on the cells reaches its halfway point. In general, EC50 refers to the concentration at which the effect is half-maximal. With `CC(C)CCn1c(Cn2c(=O)n(C3CC3)c3ccncc32)c(C(=O)O)c2ccccc21` [Compound 17, 2-((1-cyclopropyl-2-oxo-1H-imidazo[4,5-c]pyridin-3(2H)-yl)methyl)-1-isopentyl-1H-indole-3-carboxylic acid], the half-maximal cytotoxic concentration (CC50) at 3 days in data set [1] (setting [2]) is above 98400 nM. Also, the EC50 with rgRSV224 virus amounted to 159 nM.
`O=c1n(Cc2c(I)c3ccc(Cl)cc3n2CCCCO)c2cnccc2n1C1CC1` [Compound 15, 3-((6-Chloro-1-(4-hydroxybutyl)-3-iodo-1H-indol-2-yl)methyl)-1-cyclopropyl-1H-imidazo[4,5-c]pyridin-2(3H)-one]: the CC50 at 3 days in data set [1] was above 9840 nM. Moreover, in the data set on rgRSV224 virus, the EC50 was found to be 76.7 nM.
Turning to `CC(C)CCn1c(Cn2c(=O)n(C3CC3)c3ccncc32)cc2ccccc21` [Compound 12, 1-cyclopropyl-3-((1-isopentyl-1H-indol-2-yl)methyl)-1H-imidazo[4,5-c]pyridin-2(3H)-one], the CC50 at 3 days in data set [1] came out at 65500 nM. In addition, the EC50 with rgRSV224 virus is 361 nM.
`O=c1n(Cc2cc3ccc(Cl)cc3n2CCCCO)c2cnccc2n1C1CC1` [Compound 16, 3-((6-Chloro-1-(4-hydroxybutyl)-1H-indol-2-yl)methyl)-1-cyclopropyl-1H-imidazo[4,5-c]pyridin-2(3H)-one]: the CC50 at 3 days in data set [1] was above 9840 nM. The EC50 in the data set on rgRSV224 virus turned out to be 124 nM.
`CS(=O)(=O)CCCn1c(Cn2c(=O)n(C3COC3)c3ccncc32)cc2cc(Br)ccc21` [Compound 5, 3-((5-Bromo-1-(3-(methylsulfonyl)propyl)-1H-indol-2-yl)methyl)-1-(oxetan-3-yl)-1H-imidazo[4,5-c]pyridin-2(3H)-one] came in with a CC50 at 3 days in data set [1] above 9840 nM. Further, the EC50 in the data set with rgRSV224 virus was found to be 1.56 nM.
`O=c1n(Cc2cc3cc(F)ccc3n2CCCCO)c2cnccc2n1C1CC1` [Compound 9, 1-Cyclopropyl-3-((5-fluoro-1-(4-hydroxybutyl)-1H-indol-2-yl)methyl)-1H-imidazo[4,5-c]pyridin-2(3H)-one]: the CC50 at 3 days in data set [1] stood at 50300 nM. Besides, the EC50 in the data set on rgRSV224 virus worked out at 29.4 nM.
Take `CS(=O)(=O)CCCn1c(Cn2c(=O)n(C3CC3)c3ccncc32)cc2cc(Cl)ccc21` [Compound 1, 3-((5-Chloro-1-(3-(methylsulfonyl)propyl)-1H-indol-2-yl)methyl)-1-cyclopropyl-1H-imidazo[4,5-c]pyridin-2(3H)-one]: the CC50 at 3 days in data set [1] is above 9840 nM. Further, the EC50 in the data set on rgRSV224 virus was determined as 0.286 nM.
For `CS(=O)(=O)CCCn1c(Cn2c(=O)n(C3CC3)c3ccc(F)cc32)cc2cc(Br)ccc21` [Compound 6, 3-((5-Bromo-1-(3-(methylsulfonyl)propyl)-1H-indol-2-yl)methyl)-1-cyclopropyl-5-fluoro-1H-benzo[d]imidazol-2(3H)-one], the CC50 at 3 days in data set [1] is above 9840 nM. In addition, in the data set on rgRSV224 virus, the EC50 is 1.6 nM.
Consider `CCOC(=O)c1c(Cn2c(=O)n(C3CC3)c3ccncc32)n(CCC(C)C)c2ccccc12` [Compound 18, ethyl 2-((1-cyclopropyl-2-oxo-1H-imidazo[4,5-c]pyridin-3(2H)-yl)methyl)-1-isopentyl-1H-indole-3-carboxylate], for which the CC50 at 3 days in data set [1] (setting [2]) came out at 32100 nM. The EC50 in the data set on rgRSV224 virus was 3010 nM.
